Results taken from PubChem BioAssay AID1963871 (Molecular Pharmacology Branch, DTP, NCI, 2024).

System: KRAS-mutant PDC multicell tumor spheroid viability
Assay: Anticancer human tumor 521955-158-R2-J5-PDC patient-derived pancreatic carcinoma cell line growth inhibition [KRAS2]
Conditions: for IC50: curve of first compound; for viability, T/C: stronger effect = lower value
Outline: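 KRAS-mutant tumor cells were grown as spheroids with HUVEC endothelial cells and human MSCs as stroma. Targeted agents were tested alone and with KRAS pathway inhibitors. Doses started at or near clinical Cmax, or 10 microM, descending half-log.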

[1] = second compound 0.0316 µM, first compound 0.0316 µM
[2] = second compound 0.0316 µM, first compound 0.1 µM
[3] = second compound 0.0316 µM, first compound 0.316 µM
[4] = second compound 0.0316 µM, first compound 1 µM
[5] = second compound 0.0316 µM, first compound 3.16 µM
[6] = second compound 0.0316 µM, first compound 10 µM
[7] = second compound 0.1 µM, first compound 0.0316 µM
[8] = second compound 0.1 µM, first compound 0.1 µM
[9] = second compound 0.1 µM, first compound 0.316 µM
[10] = second compound 0.1 µM, first compound 1 µM
[11] = second compound 0.1 µM, first compound 3.16 µM
[12] = second compound 0.1 µM, first compound 10 µM
[13] = second compound 0.316 µM, first compound 0.0316 µM
[14] = second compound 0.316 µM, first compound 0.1 µM
[15] = second compound 0.316 µM, first compound 0.316 µM
[16] = second compound 0.316 µM, first compound 1 µM
[17] = second compound 0.316 µM, first compound 3.16 µM
[18] = second compound 0.316 µM, first compound 10 µM
[19] = second compound 1 µM, first compound 0.0316 µM
[20] = second compound 1 µM, first compound 0.1 µM
[21] = second compound 1 µM, first compound 0.316 µM
[22] = second compound 1 µM, first compound 1 µM
[23] = second compound 1 µM, first compound 3.16 µM
[24] = second compound 1 µM, first compound 10 µM
[25] = second compound 3.16 µM, first compound 0.0316 µM
[26] = second compound 3.16 µM, first compound 0.1 µM
[27] = second compound 3.16 µM, first compound 0.316 µM
[28] = second compound 3.16 µM, first compound 1 µM
[29] = second compound 3.16 µM, first compound 3.16 µM
[30] = second compound 3.16 µM, first compound 10 µM
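Further: viability read after seven days of drug exposure.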

CC(C)NCC(C(=O)N1CCN(c2ncnc3c2C(C)CC3O)CC1)c1ccc(Cl)cc1 (stereo not given) + C=CC(=O)N1CCN(c2nc(OCC3CCCN3C)nc3c2CCN(c2cccc4cccc(C)c24)C3)CC1CC#N
IC50 (second compound 0.0316 µM): > 10000 nM
IC50 (second compound 0.1 µM): > 10000 nM
IC50 (second compound 0.316 µM): > 10000 nM
IC50 (second compound 1 µM): > 10000 nM
IC50 (second compound 3.16 µM): < 31.6 nM
viability, T/C [1]: 108%
viability, T/C [2]: 110%
viability, T/C [3]: 84.5%
viability, T/C [4]: 87.1%
viability, T/C [5]: 92.3%
viability, T/C [6]: 65.8%
viability, T/C [7]: 103%
viability, T/C [8]: 103%
viability, T/C [9]: 84.5%
viability, T/C [10]: 83.6%
viability, T/C [11]: 79.6%
viability, T/C [12]: 59.8%
viability, T/C [13]: 97.5%
viability, T/C [14]: 92.3%
viability, T/C [15]: 76.2%
viability, T/C [16]: 73.5%
viability, T/C [17]: 75.4%
viability, T/C [18]: 52.1%
viability, T/C [19]: 81.6%
viability, T/C [20]: 80.4%
viability, T/C [21]: 65.8%
viability, T/C [22]: 59.2%
viability, T/C [23]: 62.3%
viability, T/C [24]: 50.6%
viability, T/C [25]: 12.2%
viability, T/C [26]: 14.6%
viability, T/C [27]: 17%
viability, T/C [28]: 11.6%
viability, T/C [29]: 3.96%
viability, T/C [30]: 1.11%

CC(C)n1nc(-c2ccc3oc(N)nc3c2)c2c(N)ncnc21 + C=CC(=O)N1CCN(c2nc(OCC3CCCN3C)nc3c2CCN(c2cccc4cccc(C)c24)C3)CC1CC#N
IC50 (second compound 0.0316 µM): 9.53 nM
IC50 (second compound 0.1 µM): 6.8 nM
IC50 (second compound 0.316 µM): 6.39 nM
IC50 (second compound 1 µM): 3.33 nM
IC50 (second compound 3.16 µM): < 0.316 nM
viability, T/C (second compound 0.0316 µM, first compound 0.000316 µM): 105%
viability, T/C (second compound 0.0316 µM, first compound 0.001 µM): 97.1%
viability, T/C (second compound 0.0316 µM, first compound 0.00316 µM): 68.1%
viability, T/C (second compound 0.0316 µM, first compound 0.01 µM): 49.6%
viability, T/C [1]: 36.9%
viability, T/C [2]: 25.6%
viability, T/C (second compound 0.1 µM, first compound 0.000316 µM): 94.6%
viability, T/C (second compound 0.1 µM, first compound 0.001 µM): 90.7%
viability, T/C (second compound 0.1 µM, first compound 0.00316 µM): 62.5%
viability, T/C (second compound 0.1 µM, first compound 0.01 µM): 43.6%
viability, T/C [7]: 31.5%
viability, T/C [8]: 24.3%
viability, T/C (second compound 0.316 µM, first compound 0.000316 µM): 92.6%
viability, T/C (second compound 0.316 µM, first compound 0.001 µM): 90.6%
viability, T/C (second compound 0.316 µM, first compound 0.00316 µM): 59%
viability, T/C (second compound 0.316 µM, first compound 0.01 µM): 44.6%
viability, T/C [13]: 27%
viability, T/C [14]: 22.7%
viability, T/C (second compound 1 µM, first compound 0.000316 µM): 76.5%
viability, T/C (second compound 1 µM, first compound 0.001 µM): 70.2%
viability, T/C (second compound 1 µM, first compound 0.00316 µM): 49.1%
viability, T/C (second compound 1 µM, first compound 0.01 µM): 33.5%
viability, T/C [19]: 23.3%
viability, T/C [20]: 18.3%
viability, T/C (second compound 3.16 µM, first compound 0.000316 µM): 33.7%
viability, T/C (second compound 3.16 µM, first compound 0.001 µM): 17.6%
viability, T/C (second compound 3.16 µM, first compound 0.00316 µM): 25.6%
viability, T/C (second compound 3.16 µM, first compound 0.01 µM): 7.26%
viability, T/C [25]: 17%
viability, T/C [26]: 14.5%

CC1(C)CCC(CN2CCN(c3ccc(C(=O)NS(=O)(=O)c4ccc(NCC5CCOCC5)c([N+](=O)[O-])c4)c(Oc4cnc5[nH]ccc5c4)c3)CC2)=C(c2ccc(Cl)cc2)C1 + C=CC(=O)N1CCN(c2nc(OCC3CCCN3C)nc3c2CCN(c2cccc4cccc(C)c24)C3)CC1CC#N
IC50 (second compound 0.0316 µM): 4890 nM
IC50 (second compound 0.1 µM): 4630 nM
IC50 (second compound 0.316 µM): 2010 nM
IC50 (second compound 1 µM): 1680 nM
IC50 (second compound 3.16 µM): < 31.6 nM
viability, T/C [1]: 108%
viability, T/C [2]: 101%
viability, T/C [3]: 105%
viability, T/C [4]: 111%
viability, T/C [5]: 77.7%
viability, T/C [6]: 4.79%
viability, T/C [7]: 97.7%
viability, T/C [8]: 100%
viability, T/C [9]: 99.9%
viability, T/C [10]: 104%
viability, T/C [11]: 72.9%
viability, T/C [12]: 4.13%
viability, T/C [13]: 88.5%
viability, T/C [14]: 97.4%
viability, T/C [15]: 100%
viability, T/C [16]: 103%
viability, T/C [17]: 19.3%
viability, T/C [18]: 4.17%
viability, T/C [19]: 85.6%
viability, T/C [20]: 89.5%
viability, T/C [21]: 84.6%
viability, T/C [22]: 81.7%
viability, T/C [23]: 11.3%
viability, T/C [24]: 1.35%
viability, T/C [25]: 10.6%
viability, T/C [26]: 8.43%
viability, T/C [27]: 5.9%
viability, T/C [28]: 1.39%
viability, T/C [29]: 0.22%
viability, T/C [30]: 0.27%
